Molecular target: T1, Bcl-2 protein (Recombinant Human Bcl-2 Protein) (Homo sapiens, UniProt P10415)
T1 construct: purchased Novus NBP2-34889
Experiment: Binding evaluation of mixture library compounds to Bcl-2 using AS-MS (affinity selection mass spectrometry)
Conditions: ASMS Ratio(%)=(A−C)/B×100; for ASMS ratio (%) n = 1: replicate n = 1; for ASMS ratio (%) n = 2: replicate n = 2
Procedure: For one well of MICROPLATE, 96-well, PP, V-BOTTOM (Greiner bio-one, 651201), DMSO solutions of 12 mixtures (prepared to approximately 0.58 mM based on calculations from the average molecular weight of each mixture), in each of which 100 compounds are mixed, were each dispensed, and dispensed into a total of 12 wells, where the 12 mixtures are mixAI-B4J-01, mixAI-B1M-01, mixAI-B1K-01, mixAI-B10-01, mixAI-B1A-01, mixAI-B3A-01, mixAI-B21-01, mixAI-B2L-01, mixAI-B2N-01, mixAI-B2A-01, mixAI-B2Q-01, and mixAI-B2R-01 listed in [Table AI-03-B4J-01], [Table AI-03-B1M-01], [Table AI-03-B1K-01], [Table AI-03-B10-01], [Table AI-03-B1A-01], [Table AI-03-B3A-01], [Table AI-03-B2I-01], [Table AI-03-B2L-01], [Table AI-03-B2N-01], [Table AI-03-B2A-01], [Table AI-03-B2Q-01], and [AI-03-B2R-01] shown in Example 6. Using the LABCYTE ECHO® 555 Acoustic Dispensing System (BECKMAN COULTER), 70 nL was collected from each of the 12 wells into one arbitrary well to prepare a sample solution with 1200 compounds in the mixed state (the presence of 1152 compounds had already been identified when prepared in Example 6-5-3). (In the present specification, the mixture collected in this one well is referred to as one library.) Furthermore, a Bcl-2 protein (Novus, NBP2-34889, Recombinant Human Bcl-2 Protein, Lot E60145051) (19.2 μL) that had been prepared in advance to be 20.9 μM using a Tris-HCl buffer (25 mM Tris-HCl pH 7.4, 150 mM NaCl, 0.025% Tween-20, 1 mM DTT) was added to the well in which 1200 compounds (the presence of 1152 compounds had already been identified when prepared in Example 6-5-3) were dispensed (final compound concentration […], final Bcl-2 concentration 20 μM), and the mixture was incubated in the dark at 23° C. for 1 hour. Next, using the 96-well MacroSpin column, P-2 Material (Harvard, 74-5655) that had been swollen, conditioning of the 96-well MacroSpin column was performed three times by centrifugation with 200 μL of an assay buffer (25 mM Tris-HCl pH 7.4, 150 mM NaCl, 0.025% Tween-20, 1 mM DTT), 2000 XG, 4° C., 2 min. Subsequently, 20 μL of the sample after incubation was added to the 96-well MacroSpin column, P-2 Material, that had been conditioned, and SEC treatment was performed by centrifugation at 2000×G for 2 minutes. To the liquid passed from the SEC, 32 μL of a 1:1 mixed solution of acetonitrile and methanol (LC/MS grade, Fujifilm Wako Pure Chemical Corporation) was added, the mixture was centrifuged at 1800×G, 4° C., 5 min, and the supernatant was used as analysis sample ASMS (A), while a sample that had been prepared by the same operations at 1200 compounds/well and to which only the Tris-HCl buffer had been added without the Bcl-2 protein was incubated under the same conditions, no 96-well MacroSpin column treatment was performed, the same organic solvent was added, and the supernatant solution obtained by centrifugation was used as STD (B). Next, a sample that had been prepared by the same operations at 1200 compounds/well and to which only the Tris-HCl buffer had been added without the Bcl-2 protein was incubated under the same conditions, the same 96-well MacroSpin column treatment was performed, the same organic solvent was added, and the supernatant solution obtained by centrifugation was used as BK (C), and measured by reversed phase LC/MS.
Then, analysis of the 1200 compounds was carried out for samples A, B, and C with TraceFinder 5.1 (Thermo Fisher Scientific) and CHANCE Software (in-house), and the ASMS Ratio (%) was calculated according to the following calculation formula.
Calculation formula: ASMS Ratio(%)=(A−C)/B×100

[1] = AS-MS, mixture of 1200 compounds, Bcl-2
[2] = AS-MS on the mixture of 1200 library compounds

T1 sequence (P10415 whole entry): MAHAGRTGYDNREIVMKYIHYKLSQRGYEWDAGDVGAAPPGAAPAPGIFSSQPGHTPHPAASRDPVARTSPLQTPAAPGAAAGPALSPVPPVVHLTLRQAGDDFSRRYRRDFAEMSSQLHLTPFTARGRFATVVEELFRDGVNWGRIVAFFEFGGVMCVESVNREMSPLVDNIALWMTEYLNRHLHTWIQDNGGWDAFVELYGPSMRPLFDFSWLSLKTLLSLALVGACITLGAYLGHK

Substance	ASMS ratio (%) n = 1 [1] [%]	ASMS ratio (%) n = 2 [1] [%]	ASMS ratio (%) n = 1 [2] [%]	ASMS ratio (%) n = 2 [2] [%]
6-[4-[3-[2-(3-Ethoxyphenyl)phenyl]propanoyl]piperazin-1-yl]-N-propylpyridazine-3-carboxamide [B1M067-01]	−1.6	−87.4	–	–
6-[4-[3-[2-(5-Ethoxypyridin-3-yl)ethynyl]-5-(trifluoromethyl)benzoyl]piperazin-1-yl]-N-propylpyridazine-3-carboxamide [B1M018-01]	0.0	0.0	–	–
6-[4-[3-[2-(5-Ethoxypyridin-3-yl)phenyl]propanoyl]piperazin-1-yl]-N-propylpyridazine-3-carboxamide [B1M077-01]	−0.7	3.1	–	–
6-[4-[3-[4-(3-Ethoxyphenyl)pyrazol-1-yl]-5-(trifluoromethyl)benzoyl]piperazin-1-yl]-N-propylpyridazine-3-carboxamide [B1M024-01]	0.0	0.0	–	–
6-[4-[3-[4-(5-Ethoxypyridin-3-yl)pyrazol-1-yl]-5-(trifluoromethyl)benzoyl]piperazin-1-yl]-N-propylpyridazine-3-carboxamide [B1M030-01]	0.0	−5.9	–	–
6-[4-[3-tert-Butyl-5-(3-ethoxyphenyl)benzoyl]piperazin-1-yl]-N-propylpyridazine-3-carboxamide [B1M060-01]	0.0	0.0	–	–
6-[4-[3-tert-Butyl-5-(5-ethoxypyridin-3-yl)benzoyl]piperazin-1-yl]-N-propylpyridazine-3-carboxamide [B1M061-01]	−3.3	−13.1	–	–
6-[4-[4-(3-Ethoxyphenyl)-3-fluorobenzoyl]piperazin-1-yl]-N-propylpyridazine-3-carboxamide [B1M087-01]	–	–	3.8	3.2
6-[4-[4-(3-Ethoxyphenyl)-3-methylbenzoyl]piperazin-1-yl]-N-propylpyridazine-3-carboxamide [B1M036-01]	6.7	−1.2	–	–
6-[4-[4-(3-Ethoxyphenyl)naphthalene-1-carbonyl]piperazin-1-yl]-N-propylpyridazine-3-carboxamide [B1M071-01]	34.0	24.4	–	–
6-[4-[4-(3-Ethoxyphenyl)thiophene-2-carbonyl]piperazin-1-yl]-N-propylpyridazine-3-carboxamide [B1M081-01]	–	–	0.0	0.0
6-[4-[4-(5-Ethoxypyridin-3-yl)-3-fluorobenzoyl]piperazin-1-yl]-N-propylpyridazine-3-carboxamide [B1M088-01]	–	–	0.0	0.0
6-[4-[4-(5-Ethoxypyridin-3-yl)-3-methylbenzoyl]piperazin-1-yl]-N-propylpyridazine-3-carboxamide [B1M037-01]	−1.5	2.3	–	–
6-[4-[4-(5-Ethoxypyridin-3-yl)naphthalene-1-carbonyl]piperazin-1-yl]-N-propylpyridazine-3-carboxamide [B1M072-01]	0.0	1.9	–	–
6-[4-[4-(5-Ethoxypyridin-3-yl)thiophene-2-carbonyl]piperazin-1-yl]-N-propylpyridazine-3-carboxamide [B1M082-01]	–	–	0.0	0.0
6-[4-[5-[2-(3-Ethoxyphenyl)ethynyl]pyridine-3-carbonyl]piperazin-1-yl]-N-propylpyridazine-3-carboxamide [B1M001-01]	0.0	0.0	–	–
6-[4-[5-[2-(5-Ethoxypyridin-3-yl)ethynyl]pyridine-3-carbonyl]piperazin-1-yl]-N-propylpyridazine-3-carboxamide [B1M056-01]	0.5	0.0	–	–
6-[4-[[2-(3-Ethoxyphenyl)phenyl]methyl]piperazin-1-yl]-N-propylpyridazine-3-carboxamide [B1M042-01]	0.0	0.0	–	–
6-[4-[[2-[2-(3-Ethoxyphenyl)ethynyl]phenyl]methyl]piperazin-1-yl]-N-propylpyridazine-3-carboxamide [B1M053-01]	−3.0	−3.1	–	–
6-[4-[[2-[2-(5-Ethoxypyridin-3-yl)ethynyl]phenyl]methyl]piperazin-1-yl]-N-propylpyridazine-3-carboxamide [B1M055-01]	3.9	−1.2	–	–
6-[4-[[3-(3-Ethoxyphenyl)-5-propan-2-yloxyphenyl]methyl]piperazin-1-yl]-N-propylpyridazine-3-carboxamide [B1M016-01]	0.0	0.0	–	–
6-[4-[[3-(5-Ethoxypyridin-3-yl)-5-(trifluoromethoxy)phenyl]methyl]piperazin-1-yl]-N-propylpyridazine-3-carboxamide [B1M035-01]	2.9	−1.7	–	–
6-[4-[[3-(5-Ethoxypyridin-3-yl)-5-(trifluoromethyl)phenyl]methyl]piperazin-1-yl]-N-propylpyridazine-3-carboxamide [B1M029-01]	3.0	−0.6	–	–
6-[4-[[3-(5-Ethoxypyridin-3-yl)-5-propan-2-yloxyphenyl]methyl]piperazin-1-yl]-N-propylpyridazine-3-carboxamide [B1M066-01]	0.0	4.4	–	–
6-[4-[[3-Ethoxy-5-(3-ethoxyphenyl)phenyl]methyl]piperazin-1-yl]-N-propylpyridazine-3-carboxamide [B1M010-01]	0.0	0.0	–	–
6-[4-[[3-Ethoxy-5-(5-ethoxypyridin-3-yl)phenyl]methyl]piperazin-1-yl]-N-propylpyridazine-3-carboxamide [B1M012-01]	−3.5	−2.3	–	–
6-[4-[[4-(3-Ethoxyphenyl)-2,6-dimethoxyphenyl]methyl]piperazin-1-yl]-N-propylpyridazine-3-carboxamide [B1M021-01]	0.0	0.0	–	–
6-[4-[[4-(3-Ethoxyphenyl)-2-ethylphenyl]methyl]piperazin-1-yl]-N-propylpyridazine-3-carboxamide [B1M070-01]	0.0	0.0	–	–
6-[4-[[4-(3-Ethoxyphenyl)-2-methoxyphenyl]methyl]piperazin-1-yl]-N-propylpyridazine-3-carboxamide [B1M094-01]	–	–	−1.5	−2.1
6-[4-[[4-(3-Ethoxyphenyl)-3-methylphenyl]methyl]piperazin-1-yl]-N-propylpyridazine-3-carboxamide [B1M059-01]	−5.5	−7.2	–	–
